Laboratory results: the supplement of paper PMC10307832

Tests used:
Assay in all cases: relative viability (nuclei count vs DMSO), 5 days (fraction); higher = more cells survive
NVP-TAE684 + Lapatinib = compound: COc1cc(N2CCC(N3CCN(C)CC3)CC2)ccc1Nc1ncc(Cl)c(Nc2ccccc2S(=O)(=O)C(C)C)n1 [NVP-TAE684] + CS(=O)(=O)CCNCc1ccc(-c2ccc3ncnc(Nc4ccc(OCc5cccc(F)c5)c(Cl)c4)c3c2)o1 [Lapatinib] (partner 2 µM)
Outline: (§1)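 Cells from lung cancer lines were seeded into 1536-well plates and, one day later, dosed by pin tool. Treatments were either a single drug or a fixed dose of an anchor drug with five library-drug doses (not always all listed) in √10 steps. After 5 days, nuclei were stained in a one-step fixation (final 0.05% Triton X-100, 1% formaldehyde, 1 ug/ml Hoechst) and counted on 4× images, and relative viability is the treated-to-vehicle nuclei ratio, as the median of duplicate plates.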

NVP-TAE684 + Olaparib = compound: COc1cc(N2CCC(N3CCN(C)CC3)CC2)ccc1Nc1ncc(Cl)c(Nc2ccccc2S(=O)(=O)C(C)C)n1 [NVP-TAE684] + O=C(c1cc(Cc2n[nH]c(=O)c3ccccc23)ccc1F)N1CCN(C(=O)C2CC2)CC1 [Olaparib] (partner 8 µM)
Outline: as §1

Vandetanib + Luminespib = compound: COc1cc2/c(=N/c3ccc(Br)cc3F)nc[nH]c2cc1OCC1CCN(C)CC1 [Vandetanib] + CCNC(=O)c1noc(-c2cc(C(C)C)c(O)cc2O)c1-c1ccc(CN2CCOCC2)cc1 [Luminespib] (partner 0.01 µM)
Outline: as §1

CUDC-101 + Dasatinib = compound: C#Cc1cccc(Nc2ncnc3cc(OC)c(OCCCCCCC(=O)NO)cc23)c1 [CUDC-101] + Cc1nc(Nc2ncc(C(=O)Nc3c(C)cccc3Cl)s2)cc(N2CCN(CCO)CC2)n1 [Dasatinib] (partner 0.075 µM)
Outline: as §1

Cell Line	relative viability (NVP-TAE684 + Lapatinib; first compound 0.2 µM)	relative viability (NVP-TAE684 + Lapatinib; first compound 0.6325 µM)	relative viability (NVP-TAE684 + Lapatinib; first compound 2 µM)	relative viability (NVP-TAE684 + Olaparib; first compound 0.2 µM)	relative viability (NVP-TAE684 + Olaparib; first compound 0.6325 µM)	relative viability (NVP-TAE684 + Olaparib; first compound 2 µM)	relative viability (Vandetanib + Luminespib; first compound 0.02 µM)	relative viability (Vandetanib + Luminespib; first compound 0.06325 µM)	relative viability (Vandetanib + Luminespib; first compound 0.2 µM)	relative viability (Vandetanib + Luminespib; first compound 0.6325 µM)	relative viability (Vandetanib + Luminespib; first compound 2 µM)	relative viability (CUDC-101 + Dasatinib; first compound 0.01 µM)	relative viability (CUDC-101 + Dasatinib; first compound 0.03162 µM)	relative viability (CUDC-101 + Dasatinib; first compound 0.1 µM)	relative viability (CUDC-101 + Dasatinib; first compound 0.3162 µM)	relative viability (CUDC-101 + Dasatinib; first compound 1 µM)
HCC-44	1.23	1.03	0.979	0.997	1.07	0.905	1.01	0.988	1.13	1.2	1.01	–	–	–	–	–
EKVX	0.199	0.189	0.155	0.868	0.678	0.464	0.878	0.86	0.956	0.827	0.65	0.374	0.499	0.571	0.439	0.362
NCI-H23	1.15	1.05	0.512	0.312	0.211	0.187	0.259	0.224	0.232	0.221	0.221	0.777	0.795	0.826	0.856	0.733
NCI-H2347	1	0.903	0.955	0.573	0.57	0.49	0.594	–	0.333	0.642	0.574	0.308	0.323	0.261	0.337	0.346
SK-LU-1	0.98	0.873	0.486	0.483	0.425	0.352	0.202	0.204	0.156	0.196	0.217	0.189	0.219	0.177	0.207	0.196
A549	1.21	–	0.192	0.308	0.387	0.3	–	–	–	–	–	–	–	–	–	–
LU99A	–	0.974	0.543	0.283	0.266	0.24	0.231	0.233	0.273	0.255	0.256	0.596	0.508	0.507	0.64	0.432
NCI-H596	0.915	0.949	0.893	0.66	0.595	0.537	0.915	0.89	0.81	1.02	0.771	0.666	0.603	0.601	0.604	0.588
A-427	1.12	–	0.922	0.814	0.674	0.631	0.892	0.822	0.927	1.08	0.926	0.745	0.659	0.649	0.608	0.389
SW 900	–	–	–	0.885	0.953	0.68	0.19	0.17	0.195	0.204	0.175	0.455	0.68	0.791	0.602	0.618
COR-L 105	0.376	0.319	0.235	0.695	0.595	–	0.643	0.694	0.275	0.854	0.604	0.337	0.382	0.277	0.418	0.122
LOU-NH91	0.781	0.648	0.516	0.888	–	0.657	0.33	0.306	0.294	0.369	0.32	0.596	0.509	0.469	0.486	0.38
COR-L23	0.661	0.898	0.538	0.273	0.282	0.281	0.629	0.653	0.747	0.7	0.685	0.578	0.485	0.477	0.499	0.177
HCC-15	0.914	0.893	0.808	0.745	0.748	0.577	0.343	0.293	0.0608	0.298	0.227	0.641	0.622	0.628	0.672	0.473
LCLC-103H	–	–	–	0.794	0.783	0.726	0.922	0.979	0.906	0.916	0.912	0.524	0.384	0.451	0.478	0.46
HARA	1.09	0.626	0.232	0.76	0.891	0.299	0.814	0.561	0.074	0.9	0.512	0.246	0.311	0.271	0.282	0.229
BEN	0.579	0.552	0.62	1.04	0.971	0.894	0.448	0.333	0.469	0.297	0.351	0.426	0.301	0.346	0.311	0.264
LC-2-ad	0.988	0.921	0.455	0.75	0.675	0.464	0.987	0.996	1.09	1	0.616	0.737	0.879	0.638	0.69	0.298
NCI-H1299	1.03	0.964	0.836	0.979	1.02	0.682	–	–	–	–	–	–	–	–	–	–
NCI-H2009	0.938	0.888	0.731	0.657	0.665	0.634	1.04	0.998	0.17	1.07	1.03	0.321	0.281	0.396	0.443	0.338

Cell Line	relative viability (NVP-TAE684 + Lapatinib; first compound 0.2 µM)	relative viability (NVP-TAE684 + Lapatinib; first compound 0.6325 µM)	relative viability (NVP-TAE684 + Lapatinib; first compound 2 µM)	relative viability (NVP-TAE684 + Olaparib; first compound 0.2 µM)	relative viability (NVP-TAE684 + Olaparib; first compound 0.6325 µM)	relative viability (NVP-TAE684 + Olaparib; first compound 2 µM)	relative viability (Vandetanib + Luminespib; first compound 0.02 µM)	relative viability (Vandetanib + Luminespib; first compound 0.06325 µM)	relative viability (Vandetanib + Luminespib; first compound 0.2 µM)	relative viability (Vandetanib + Luminespib; first compound 0.6325 µM)	relative viability (Vandetanib + Luminespib; first compound 2 µM)	relative viability (CUDC-101 + Dasatinib; first compound 0.01 µM)	relative viability (CUDC-101 + Dasatinib; first compound 0.03162 µM)	relative viability (CUDC-101 + Dasatinib; first compound 0.1 µM)	relative viability (CUDC-101 + Dasatinib; first compound 0.3162 µM)	relative viability (CUDC-101 + Dasatinib; first compound 1 µM)
NCI-H1395	1.29	0.921	0.859	0.463	0.422	0.384	0.715	0.539	0.729	0.6	0.879	0.418	0.385	0.438	0.434	0.363
NCI-H1650	0.958	0.684	0.347	0.757	0.758	0.825	0.198	0.216	0.161	0.21	0.154	0.302	0.292	0.321	0.324	0.221
NCI-H2085	0.788	0.632	0.648	0.819	0.754	0.714	0.451	0.384	0.269	0.478	0.398	0.205	0.274	0.221	0.196	0.215
NCI-H1666	0.588	0.447	0.283	0.734	0.772	0.736	1.05	0.981	0.405	0.949	0.823	0.903	0.786	0.814	0.911	0.795
NCI-H1993	–	0.77	0.7	1.11	1.09	0.749	0.951	0.785	0.538	0.838	0.721	0.594	0.666	0.686	0.571	0.541
NCI-H1437	0.874	0.729	0.418	0.65	0.663	0.523	1.12	1.09	0.255	1.21	1.06	0.384	0.364	0.457	0.432	0.402
ABC-1	1.06	1.33	0.976	0.636	0.692	0.37	0.673	0.616	0.401	1.2	0.594	0.772	0.728	0.543	0.532	0.194
HCC-366	1.58	0.932	0.963	0.352	0.326	0.288	–	–	–	–	–	0.631	0.632	0.6	0.715	0.526
IA-LM	0.698	0.66	0.427	0.745	0.799	0.638	–	–	–	–	–	–	–	–	–	–
NCI-H2342	–	–	–	0.419	0.427	0.3	0.757	0.71	0.716	0.754	0.651	0.316	0.301	0.325	0.298	0.241
NCI-H522	–	–	–	0.642	0.664	0.662	1.3	1.17	1.11	1.18	0.96	0.931	0.758	0.928	0.842	0.596
Calu-6	1.31	0.94	–	0.657	0.519	0.357	–	–	–	–	–	–	–	–	–	–
NCI-H1703	1.41	0.994	0.392	0.368	0.413	0.14	–	–	–	–	–	–	–	–	–	–
NCI-H441	–	–	–	0.617	0.659	0.309	0.376	0.392	0.208	0.409	0.45	0.691	0.523	0.683	0.646	0.678
HCC-78	1.26	1.3	0.255	0.727	0.859	0.406	–	–	–	–	–	0.401	0.293	0.373	0.28	0.213
NCI-H1623	–	–	–	–	–	–	0.504	0.577	0.581	0.521	0.436	0.561	0.501	0.429	0.676	0.486
ChaGo-K-1	–	–	–	0.422	0.418	0.345	0.633	0.593	0.616	0.59	0.507	0.571	0.612	0.526	0.539	0.529
NCI-H1563	0.95	0.858	0.655	–	–	–	0.552	0.53	0.515	0.518	0.473	0.439	0.465	0.448	0.488	0.429
EBC-1	0.221	0.223	0.192	0.713	0.661	0.55	–	–	–	–	–	–	–	–	–	–
NCI-H1648	–	–	–	0.45	0.863	0.287	–	–	–	–	–	–	–	–	–	–
